Measurements: ChEMBL document CHEMBL1201862, “PubChem BioAssay data set” (2004)
Activity calls are given as the source filed them.

Molecular target: T1, Protein skinhead-1 (Caenorhabditis elegans, UniProt P34707)
T1 sequence (P34707 whole entry): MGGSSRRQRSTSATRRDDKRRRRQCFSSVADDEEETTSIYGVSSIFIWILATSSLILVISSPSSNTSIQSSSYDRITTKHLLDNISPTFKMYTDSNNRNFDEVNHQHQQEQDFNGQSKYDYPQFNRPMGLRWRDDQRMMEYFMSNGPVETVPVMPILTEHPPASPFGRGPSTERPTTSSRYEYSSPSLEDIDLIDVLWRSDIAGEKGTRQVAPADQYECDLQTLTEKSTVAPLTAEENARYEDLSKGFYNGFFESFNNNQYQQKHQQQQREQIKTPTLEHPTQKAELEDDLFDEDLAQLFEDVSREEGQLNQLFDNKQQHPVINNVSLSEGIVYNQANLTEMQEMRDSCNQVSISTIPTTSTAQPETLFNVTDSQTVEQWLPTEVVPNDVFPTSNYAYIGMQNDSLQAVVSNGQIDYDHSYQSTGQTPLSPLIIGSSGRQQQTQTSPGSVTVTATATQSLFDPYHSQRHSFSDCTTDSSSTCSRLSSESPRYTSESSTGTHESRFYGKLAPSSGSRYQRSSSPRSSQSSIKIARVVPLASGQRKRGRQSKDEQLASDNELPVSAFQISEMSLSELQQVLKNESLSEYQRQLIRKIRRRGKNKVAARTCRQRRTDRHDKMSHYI
Assay: not given
Type: functional

| Compound | IC50 |
| --- | --- |
| COc1ccc(CNC(C)C(=O)Nc2ccc3ccccc3c2)cc1OC (centres undefined) | > 100 µM (inactive) |
| O=C(Nc1nc(-c2ccccc2)cs1)c1cccs1 | 59.9 µM (inactive) |
| CC1(Cc2ccc(OC(F)(F)F)cc2)C(=O)Nc2ccc(OC(F)(F)F)cc21 (centres undefined) | 34.3 µM (active) |
| Cc1ccc(NC(=O)COC(=O)C2(C)CC2(Cl)Cl)cc1S(=O)(=O)N1CCOCC1 (centres undefined) | > 100 µM (inactive) |
| COc1ccc(C2C(C(=O)OC(C)C)=C(C)N=c3s/c(=C\c4cccs4)c(=O)n32)cc1 (centres undefined) | > 100 µM (inactive) |
| COc1ccc(-c2cc(C(=O)Nc3c(C)n(C)n(-c4ccccc4)c3=O)c3ccccc3n2)c(OC)c1 | > 100 µM (inactive) |
| O=c1c2cc3c(cc2[nH]c(=S)n1Cc1ccco1)OCO3 | > 100 µM (inactive) |

Test system: not listed separately
Assay: C. albicans growth with fluconazole, confirmation, fluorescence, retest (AID 2467)
Type: functional, cell-based

| Compound | EC50 |
| --- | --- |
| O=c1cc(-c2c(F)c(F)c(F)c(F)c2F)oc2c(F)c(F)c(F)c(F)c12 | 0.52 µM (active) |

Molecular target: T2, Protein RecA (Mycobacterium tuberculosis, UniProt P9WHJ3)
T2 sequence (P9WHJ3 whole entry): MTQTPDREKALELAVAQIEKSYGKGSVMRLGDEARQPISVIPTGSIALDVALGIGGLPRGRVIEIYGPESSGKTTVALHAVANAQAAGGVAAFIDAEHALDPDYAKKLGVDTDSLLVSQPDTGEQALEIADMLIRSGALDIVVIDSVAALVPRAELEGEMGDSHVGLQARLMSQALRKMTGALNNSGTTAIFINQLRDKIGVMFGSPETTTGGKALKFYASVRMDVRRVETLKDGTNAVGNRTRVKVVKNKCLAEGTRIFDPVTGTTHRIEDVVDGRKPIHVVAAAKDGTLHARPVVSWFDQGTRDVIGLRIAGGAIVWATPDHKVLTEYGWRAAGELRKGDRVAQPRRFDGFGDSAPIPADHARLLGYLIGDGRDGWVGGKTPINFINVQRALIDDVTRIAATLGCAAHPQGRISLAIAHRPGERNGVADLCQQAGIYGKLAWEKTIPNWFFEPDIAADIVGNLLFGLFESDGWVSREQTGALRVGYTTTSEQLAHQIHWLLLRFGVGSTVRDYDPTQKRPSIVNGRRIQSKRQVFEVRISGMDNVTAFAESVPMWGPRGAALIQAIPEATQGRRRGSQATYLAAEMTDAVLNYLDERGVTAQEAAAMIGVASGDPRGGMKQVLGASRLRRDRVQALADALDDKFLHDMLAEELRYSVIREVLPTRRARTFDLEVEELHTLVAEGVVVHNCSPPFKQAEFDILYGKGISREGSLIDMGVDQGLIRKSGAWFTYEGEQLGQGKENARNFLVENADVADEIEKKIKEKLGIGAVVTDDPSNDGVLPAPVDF
Assay: Fluorescence Cell-Free Homogeneous Dose Retest to Identify Inhibitors of RecA-Intein Splicing Activity. [Related pubchem assays (depositor defined):AID2097, AID2223, AID489010, AID492950]
Type: functional

| Compound | EC50 |
| --- | --- |
| Cc1nc2c(-c3ccc(F)cc3)c(C)nn2c(O)c1Cl | 11 µM (active) |
| CCOc1cc(/C=C2/C(=N)N3C(=NC2=O)SN=C3S(=O)(=O)C(C)C)ccc1OC(=O)c1ccco1 | 18.6 µM (active) |
| COc1ccc(S(=O)(=O)c2cnc3ccccc3n2)cc1 | 16.4 µM (active) |
| COC(=O)C(C)Sc1ncnc2c1nnn2-c1ccc(F)cc1 (centres undefined) | 5.09 µM (active) |
| CC1=NN(c2ccc(N)cc2)C(=O)C1 | 1.78 µM (active) |
| Cc1nn(Cc2ccccc2)c2c1C(c1cccnc1)C(C#N)=C(N)O2 (centres undefined) | 2.78 µM (active) |
| NC(=O)CC[C@@H]1NC(=O)[C@H](CO)NC(=O)c2cc([N+](=O)[O-])cc(I)c2NCC[C@@H](C(N)=O)NC1=O | 13.3 µM (active) |
| O=c1cc(-c2c(F)c(F)c(F)c(F)c2F)oc2c(F)c(F)c(F)c(F)c12 | 2.92 µM (active) |
| Cc1ccc2nc(-c3cccs3)oc(=O)c2c1 | 60.5 µM (active) |
| CCn1c(COc2cccc3ccccc23)nnc1SCC(N)=O | > 380 µM (inactive) |
| CC(C)S(=O)(=O)C1=NSC2=NC(=O)/C(=C\c3ccc(OC(=O)c4ccco4)cc3)C(=N)N21 | 10.9 µM (active) |
| O=C1NC(c2ccc(-c3ccccc3[N+](=O)[O-])o2)C(C(=O)c2ccc(F)cc2)C(O)(C(F)(F)F)N1 (centres undefined) | > 380 µM (inconclusive) |

Test system: not listed separately
Assay: growth suppression of PTEN-null colon cells, dose response, cell-based, HCT116 PTEN knockout (AID 1047);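 further: HCT116 colon tumor cells with PTEN knocked out; cells exposed to compound for 60 hours before readout; potency for loss of cell viability measured by luminescence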
Type: functional

| Compound | EC50 |
| --- | --- |
| O=c1cc(-c2c(F)c(F)c(F)c(F)c2F)oc2c(F)c(F)c(F)c(F)c12 | 5.95 µM (active) |

Test system: not listed separately
Assay: P. falciparum Dd2 growth inhibitors, dose response, SYBR Green, cherry-picked samples (AID 1159567)
Type: functional, cell-based

| Compound | AC50 |
| --- | --- |
| COc1ccc(-c2ccc([C@@H]3[C@@H](CO)N4C(=O)CN(C(=O)C5CCCC5)C[C@@H]34)cc2)cc1 | 4.83 µM (active) |

Test system: not listed separately
Assay: NIH-3T3 fibroblast cytotoxicity, dose response, cytotoxicity control, cell-based, fluorescence, Alamar Blue, secondary assay (AID 2327);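 further: NIH-3T3 mouse fibroblasts cultured with fluconazole at 8 µg/mL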
Type: functional

| Compound | EC50 |
| --- | --- |
| O=c1cc(-c2c(F)c(F)c(F)c(F)c2F)oc2c(F)c(F)c(F)c(F)c12 | 2.66 µM (inconclusive) |

Test system: not listed separately
Assay: growth suppression of beta-catenin-knockout colon cells, dose response, cell-based, HCT116, human colon tumor (AID 1045);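 further: HCT116 colon tumor cells with beta catenin knocked out; cells exposed to compound for 60 hours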
Type: functional

| Compound | EC50 |
| --- | --- |
| O=c1cc(-c2c(F)c(F)c(F)c(F)c2F)oc2c(F)c(F)c(F)c(F)c12 | 3.37 µM (active) |

Molecular target: T3, Heat shock factor protein 1 (Mus musculus, UniProt P38532)
T3 sequence (P38532 whole entry): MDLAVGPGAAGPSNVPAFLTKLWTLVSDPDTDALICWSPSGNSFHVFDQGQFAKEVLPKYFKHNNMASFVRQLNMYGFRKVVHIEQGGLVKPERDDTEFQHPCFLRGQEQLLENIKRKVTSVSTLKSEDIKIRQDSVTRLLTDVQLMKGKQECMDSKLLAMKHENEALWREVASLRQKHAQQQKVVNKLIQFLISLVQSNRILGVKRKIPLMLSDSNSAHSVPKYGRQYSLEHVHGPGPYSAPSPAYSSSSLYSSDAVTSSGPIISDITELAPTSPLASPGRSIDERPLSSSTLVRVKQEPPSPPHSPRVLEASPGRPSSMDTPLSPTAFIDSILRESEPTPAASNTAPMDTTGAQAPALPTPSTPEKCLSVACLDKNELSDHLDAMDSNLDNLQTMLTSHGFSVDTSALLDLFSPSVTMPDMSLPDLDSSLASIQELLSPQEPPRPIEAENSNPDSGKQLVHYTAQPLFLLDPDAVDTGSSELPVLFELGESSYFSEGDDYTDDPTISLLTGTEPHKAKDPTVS
Assay: HSF1 potentiators in luciferase reporter cells, confirmation, cell-based, NIH3T3, luminescence, dose retest (AID 435004);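 further: stress induced by proteasome inhibitor MG132 added 30 min after compound; luciferase reporter driven by HSF1 response element in NIH3T3 cells; actives raise luminescence as potentiators of the MG132 stress response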
Type: functional

| Compound | EC50 |
| --- | --- |
| COC(=O)C(C)Sc1ncnc2c1nnn2-c1ccc(F)cc1 (centres undefined) | 11.6 µM (active) |

Molecular target: T4, Replicative DNA helicase DnaB (Mycobacterium tuberculosis, UniProt P9WMR3)
T4 sequence (P9WMR3 whole entry): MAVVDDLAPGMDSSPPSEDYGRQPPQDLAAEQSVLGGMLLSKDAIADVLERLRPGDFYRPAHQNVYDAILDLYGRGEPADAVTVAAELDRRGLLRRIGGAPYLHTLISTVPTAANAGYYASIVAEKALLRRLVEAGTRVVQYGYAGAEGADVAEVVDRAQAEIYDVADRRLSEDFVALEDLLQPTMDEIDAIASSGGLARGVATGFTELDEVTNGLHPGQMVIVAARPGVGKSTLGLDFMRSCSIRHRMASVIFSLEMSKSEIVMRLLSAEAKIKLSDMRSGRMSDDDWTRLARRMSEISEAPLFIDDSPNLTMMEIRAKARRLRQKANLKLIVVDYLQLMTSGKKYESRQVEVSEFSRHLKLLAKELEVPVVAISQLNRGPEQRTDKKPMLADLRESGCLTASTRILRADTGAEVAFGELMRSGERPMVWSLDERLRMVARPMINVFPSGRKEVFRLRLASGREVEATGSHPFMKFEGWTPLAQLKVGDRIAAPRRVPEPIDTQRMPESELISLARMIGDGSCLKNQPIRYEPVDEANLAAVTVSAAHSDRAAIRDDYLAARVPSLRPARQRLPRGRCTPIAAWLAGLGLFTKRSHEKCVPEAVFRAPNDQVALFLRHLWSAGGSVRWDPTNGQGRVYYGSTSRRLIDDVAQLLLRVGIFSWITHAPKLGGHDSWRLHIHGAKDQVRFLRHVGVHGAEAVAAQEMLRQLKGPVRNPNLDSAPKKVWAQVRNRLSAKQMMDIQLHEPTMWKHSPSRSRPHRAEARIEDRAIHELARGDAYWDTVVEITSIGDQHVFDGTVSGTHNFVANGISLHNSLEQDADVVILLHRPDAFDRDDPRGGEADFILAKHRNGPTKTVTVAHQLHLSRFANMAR
Assay: DnaB intein splicing inhibitors, dose response, biochemical, cell-free fluorescence (AID 449749)
Type: functional

| Compound | AC50 |
| --- | --- |
| Cc1nc2c(-c3ccc(F)cc3)c(C)nn2c(O)c1Cl | 31.1 µM (active) |
| CCOc1cc(/C=C2/C(=N)N3C(=NC2=O)SN=C3S(=O)(=O)C(C)C)ccc1OC(=O)c1ccco1 | > 380 µM (inactive) |
| COc1ccc(S(=O)(=O)c2cnc3ccccc3n2)cc1 | 54.1 µM (active) |
| COC(=O)C(C)Sc1ncnc2c1nnn2-c1ccc(F)cc1 (centres undefined) | 5.57 µM (active) |
| CC1=NN(c2ccc(N)cc2)C(=O)C1 | 2.41 µM (active) |
| Cc1nn(Cc2ccccc2)c2c1C(c1cccnc1)C(C#N)=C(N)O2 (centres undefined) | 8.8 µM (active) |
| NC(=O)CC[C@@H]1NC(=O)[C@H](CO)NC(=O)c2cc([N+](=O)[O-])cc(I)c2NCC[C@@H](C(N)=O)NC1=O | 47.5 µM (active) |
| O=c1cc(-c2c(F)c(F)c(F)c(F)c2F)oc2c(F)c(F)c(F)c(F)c12 | 7.17 µM (active) |
| Cc1ccc2nc(-c3cccs3)oc(=O)c2c1 | 117 µM (active) |
| CCn1c(COc2cccc3ccccc23)nnc1SCC(N)=O | 273 µM (active) |
| CC(C)S(=O)(=O)C1=NSC2=NC(=O)/C(=C\c3ccc(OC(=O)c4ccco4)cc3)C(=N)N21 | 17 µM (active) |
| O=C1NC(c2ccc(-c3ccccc3[N+](=O)[O-])o2)C(C(=O)c2ccc(F)cc2)C(O)(C(F)(F)F)N1 (centres undefined) | 13.3 µM (active) |

Test system: not listed separately
Assay: cytotoxicity toward NIH3T3 fibroblasts, dose response, counter-screen, cell-based, ATP luminescence, mouse fibroblasts (AID 2010);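 further: cells exposed to compound for about 90 hours before reading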
Type: functional

| Compound | EC50 |
| --- | --- |
| O=c1cc(-c2c(F)c(F)c(F)c(F)c2F)oc2c(F)c(F)c(F)c(F)c12 | 1.04 µM (active) |

Test system: not listed separately
Assay: inhibitors of intracellular T. cruzi replication, confirmation, NIH3T3 host cells, beta-gal luminescence (AID 2044);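 further: intracellular parasites grown in NIH/3T3 mouse fibroblasts as host cells; luminescent beta-galactosidase reporter signal from transgenic T. cruzi replicating inside host cells; inhibitors lower the luminescence signal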
Type: functional, cell-based

| Compound | EC50 |
| --- | --- |
| O=c1cc(-c2c(F)c(F)c(F)c(F)c2F)oc2c(F)c(F)c(F)c(F)c12 | 0.663 µM (active) |
